Measurements taken from paper PMC5531494, “Target specificity, in vivo pharmacokinetics, and efficacy of the putative STAT3 inhibitor LY5 in osteosarcoma, Ewing's sarcoma, and rhabdomyosarcoma” (PLoS ONE, 2017).
Marks after values point to notes of the source that are not given here.

How the values were obtained:
[1] = biological target: T1, polo-like kinase 3 (PLK3) (Homo sapiens, UniProt Q9H4B4); assay: KINOMESCAN binding, PLK3; settings: 5 μM LY5
T1 construct: purchased KINOMESCAN (www.kinomescan.com)
T1 sequence (Q9H4B4 whole entry): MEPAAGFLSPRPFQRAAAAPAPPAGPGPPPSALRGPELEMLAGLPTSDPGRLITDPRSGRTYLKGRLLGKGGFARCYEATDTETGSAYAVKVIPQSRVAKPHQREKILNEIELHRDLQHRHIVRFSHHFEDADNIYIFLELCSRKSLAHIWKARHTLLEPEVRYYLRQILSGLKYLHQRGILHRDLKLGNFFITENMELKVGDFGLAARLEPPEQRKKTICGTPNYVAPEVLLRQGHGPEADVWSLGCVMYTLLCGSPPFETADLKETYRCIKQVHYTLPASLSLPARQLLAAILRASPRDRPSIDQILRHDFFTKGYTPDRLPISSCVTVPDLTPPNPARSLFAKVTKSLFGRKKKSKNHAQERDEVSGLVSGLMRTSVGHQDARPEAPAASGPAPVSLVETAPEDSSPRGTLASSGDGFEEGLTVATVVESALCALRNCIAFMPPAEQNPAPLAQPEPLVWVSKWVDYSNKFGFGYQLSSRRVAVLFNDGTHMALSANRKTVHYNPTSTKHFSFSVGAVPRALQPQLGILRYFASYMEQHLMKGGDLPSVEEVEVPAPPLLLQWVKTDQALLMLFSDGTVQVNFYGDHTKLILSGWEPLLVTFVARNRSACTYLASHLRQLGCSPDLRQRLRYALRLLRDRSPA
Procedure: To determine the specificity of STAT blockade, we asked whether LY5 affected the phosphorylation of other family members including STAT1, STAT2, STAT4, and STAT6 [30–32]. […] To further define any potential off-target effects, we profiled the direct (steric) or indirect (allosteric) binding of LY5 to the binding sites of 96 human protein or lipid kinases (KINOMESCAN, www.kinomescan.com).
Supplementary file pone.0181885.s001.pdf: S1 Fig Kinomescan results for LY5. […] At 5 μM LY5 (B), only interaction with PLK3 was identified, mapped S-score (35) = 0.01. (PDF) Click here for additional data file.

[2] = Clinical toxicities in normal dogs; type: in vivo; settings: 1 mg/kg, 24 hour PK collection timeframe
Procedure: LY5 was evaluated in two normal purpose-bred beagle dogs (female 8.8 kg; male 11.2 kg) receiving a single dose of 1mg/kg LY5 IV then orally by gavage 7 days later to establish the PK profile and assess the spectrum of clinical toxicities associated with LY5 administration. The oral dosing was repeated in the fed and fasted state. The starting dose was determined based on allometric scaling from the maximal tolerated dose studies performed in mice. Dogs were washed out for 30 days, and then given a dose of 25 mg in a capsule orally, followed by a 50 mg capsule dose 14 days later. Full PK sampling was performed over 24 hours following each dose of LY5. The dogs received LY5 and were used for the PK analysis but were not euthanized upon conclusion of the study.

[3] = test system: OS-17; assay: Subcutaneous xenograft study; type: in vivo, mice; settings: OS-17, 10 mg/kg daily for 28 days
Procedure: (§1) C.B-17SC scid^-/- female mice (Taconic Farms, Germantown NY), were used to propagate subcutaneously implanted tumors. All mice were maintained under barrier conditions and experiments were conducted using protocols and conditions approved by the institutional animal care and use committee at University of Texas Health Science Center at San Antonio. Ten mice were used in each control or treatment group. Tumor volumes (cm^3) were determined and responses were determined using three activity measures as previously described.
(§2) The data were analyzed by using GraphPad Prism software (GraphPad Software, Inc., San Diego, CA). Data are presented as mean ± standard deviation. Data were analyzed by one-way analysis of variance (ANOVA), and Tukey’s post-test was used to assess differences between groups. Differences were considered statistically significant at p < 0.05. For in vivo xenograft models, an event was defined as four times the tumor volume at baseline similar to the PPTP criteria. The probabilities of time-to-event among groups were compared using log-rank test. The anti-tumor efficacy of LY5 was analyzed by using the statistical pipeline developed in PPTP [27].

[4] = test system: Rh10; assay: Subcutaneous xenograft study; type: in vivo, mice; settings: Rh10, 10 mg/kg daily for five days for four consecutive weeks
Procedure: as §1, §2

[5] = test system: Rh36; assay: Subcutaneous xenograft study; type: in vivo, mice; settings: Rh36, 10 mg/kg daily for 28 days
Procedure: as §1, §2

[6] = test system: RH30, ES-3, ES-7, EW-8 cells; assay: Combined STAT3 knockdown-LY5 cell viability assay (Alamar Blue); type: cell-based, human; settings: NC siRNA or STAT3 siRNA 48 hrs, then 0.5 μM or 1 μM LY5 48 hrs
Procedure: Cell lines were transfected with 10 nM of AllStars negative control siRNA or human STAT3-targeting siRNA #7 (5’-[…]-3’) (Qiagen, Germantown, MD) using Lipofectamine RNAiMAX (Life Technologies, Carlsbad, CA) according to the manufacturer’s instructions. After 72 hrs of transfection, cells were harvested and lysed for immunoblotting. For the combined STAT3 knockdown–LY5 cell viability assay, negative control siRNA or STAT3 siRNA #7 was transfected into cell lines. After 48 hrs, cells were treated with 0.5 μM or 1 μM of LY5 for another 48 hrs. Cell viability was then analyzed using Alamar Blue as described above.
Fig 6 Effects of LY5 are not mediated via STAT3 inhibition. (A) Antitumor activity of LY5 against OS-1 PDX model of OS. […] After 72 hours of transfection, cells were harvested and analyzed for total (T) STAT3 and GAPDH protein expression by immunoblotting. […] Cell viability was then determined using Alamar Blue staining. […]
(A) ES cell line ES-3 was transfected with either negative control siRNA (NC siRNA) or STAT3-targeting siRNA #7. After 72 hrs of transfection, cells were harvested and analyzed for total (T) STAT3 and GAPDH protein expression by immunoblotting. […] Cell viability was evaluated using Alamar Blue staining. […]

Structure (SMILES): NS(=O)(=O)c1cccc2c1C(=O)C=C(Nc1cccnc1)C2=O [LY5, 5,8-dioxo-6-(pyridin-3-ylamino)-5,8-dihydronaphthalene-1-sulfonamide]
- binding to PLK3 [1]: binding
- tolerability / acute clinical toxicities [2]: well tolerated without apparent acute clinical toxicities
- Event-free survival (Treatment/Control) [3]: 1.15
- Group Response [3]: PD1 (Progressive disease 1, <50% tumor growth inhibition (TGI))
- Median day to event [3]: 19.7 days
- Survival (%) [3]: 90%
- Event-free survival (Treatment/Control) [4]: 1.11
- Group Response [4]: PD1^e (Progressive disease 1, <50% tumor growth inhibition (TGI))
- Median day to event [4]: 18.7 days
- Survival (%) [4]: 100%
- Event-free survival (Treatment/Control) [5]: 0.94
- Group Response [5]: PD1 (Progressive disease 1, <50% tumor growth inhibition (TGI))
- Median day to event [5]: 16.5 days
- Survival (%) [5]: 100%
- response to LY5 (cell viability) with or without STAT3 depletion [6]: comparable
